Test results: the supplement of paper PMC10307832

What was measured:
Experiment in all cases: relative viability (nuclei count vs DMSO), 5 days (fraction); higher = more cells survive
[1] = compound: C1=CC=C2C(=C1)N=C(S2)C(C#N)C3=NC(=NC=C3)NCCC4=CN=CC=C4 + Nc1ncn([C@H]2C[C@H](O)[C@@H](CO)O2)c(=O)n1 [Decitabine] (partner 2 µM)
Summary of the method: (§1)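 Cells from lung cancer lines were seeded into 1536-well plates and, one day later, dosed by pin tool. Treatments were either a single drug or a fixed dose of an anchor drug with five library-drug doses (not always all listed) in √10 steps. After 5 days, nuclei were stained in a one-step fixation (final 0.05% Triton X-100, 1% formaldehyde, 1 ug/ml Hoechst) and counted on 4× images, and relative viability is the treated-to-vehicle nuclei ratio, as the median of duplicate plates.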

[2] = compound: C1=CC=C2C(=C1)N=C(S2)C(C#N)C3=NC(=NC=C3)NCCC4=CN=CC=C4 + Cc1cc(Nc2cc(N3CCN(C)CC3)nc(Sc3ccc(NC(=O)C4CC4)cc3)n2)n[nH]1 [Tozasertib] (partner 0.1 µM)
Summary of the method: as §1

CUDC-101 + Tozasertib = compound: C#Cc1cccc(Nc2ncnc3cc(OC)c(OCCCCCCC(=O)NO)cc23)c1 [CUDC-101] + Cc1cc(Nc2cc(N3CCN(C)CC3)nc(Sc3ccc(NC(=O)C4CC4)cc3)n2)n[nH]1 [Tozasertib] (partner 0.1 µM)
Summary of the method: as §1

Vandetanib + Olaparib = compound: COc1cc2/c(=N/c3ccc(Br)cc3F)nc[nH]c2cc1OCC1CCN(C)CC1 [Vandetanib] + O=C(c1cc(Cc2n[nH]c(=O)c3ccccc23)ccc1F)N1CCN(C(=O)C2CC2)CC1 [Olaparib] (partner 8 µM)
Summary of the method: as §1

Cell Line: UMC-11
- relative viability ([1]; first compound 0.005 µM): 0.546
- relative viability ([1]; first compound 0.01581 µM): 0.65
- relative viability ([1]; first compound 0.05 µM): 0.456
- relative viability ([1]; first compound 0.1581 µM): 0.589
- relative viability ([1]; first compound 0.5 µM): 0.59
- relative viability ([2]; first compound 0.005 µM): 0.212
- relative viability ([2]; first compound 0.01581 µM): 0.214
- relative viability ([2]; first compound 0.05 µM): 0.177
- relative viability ([2]; first compound 0.1581 µM): 0.249
- relative viability ([2]; first compound 0.5 µM): 0.206
- relative viability (CUDC-101 + Tozasertib; first compound 0.01 µM): 0.193
- relative viability (CUDC-101 + Tozasertib; first compound 0.03162 µM): 0.176
- relative viability (CUDC-101 + Tozasertib; first compound 0.1 µM): 0.193
- relative viability (CUDC-101 + Tozasertib; first compound 0.3162 µM): 0.155
- relative viability (CUDC-101 + Tozasertib; first compound 1 µM): 0.133
- relative viability (Vandetanib + Olaparib; first compound 0.02 µM): 0.707
- relative viability (Vandetanib + Olaparib; first compound 0.06325 µM): 0.35
- relative viability (Vandetanib + Olaparib; first compound 0.2 µM): 0.473
- relative viability (Vandetanib + Olaparib; first compound 0.6325 µM): 0.315
- relative viability (Vandetanib + Olaparib; first compound 2 µM): 0.475
